Test results reported in PMC10436550, “Subacute toxicity evaluations of LPM3480392 in rats, a full µ-opioid receptor biased agonist” (Frontiers in Pharmacology, 2023).
Read-outs that look alike come from different tables or passages of the source.

Assays:
Sprague Dawley (SD) rats = assay: Histopathology, 4-week subacute toxicity study; type: in vivo, rat; conditions: for Epididymis: Cell debris, lumen, Grade: 1 (minimal), animals / Epididymis: Cell debris, lumen, Grade: 3 (moderate), animals / Epididymis: Cell debris, lumen, Total Incidence / Epididymis: Sperm, decreased, lumen, Grade: 4 (marked), animals / Epididymis: Sperm, decreased, lumen, Total Incidence / Testis: Degeneration, tubule, Grade: 2 (mild), animals / Testis: Degeneration, tubule, Total Incidence: M
Method: The tissues in the Table 2 were preserved in 10% neutral phosphate-buffered formalin. Bilateral eyes, optic nerves, testes, epididymides and Harderian glands were fixed in modified Davidson’s solution. For all the above tissues in all groups, sampling, paraffin embedding, sectioning and hematoxylin-eosin staining was performed, followed by histopathology examination microscopically with light microscopy.

[1] = Toxicokinetics, plasma LPM3480392 after intravenous administration; type: in vivo, Sprague Dawley (SD) rats; conditions: for concentration at 2 min / AUC(0-t): both sexes, Sprague-Dawley, rat, plasma; for concentration at 2 min: intravenous; for AUC(0-t): iv
Method: Blood samples from animals in LPM3480392 groups were collected at predose and 2 min, 30 min, 1 h and 4 h postdose of the 1st dosing on Days 1 and 28; at 2 min and 4 h postdose of the 2nd dosing on Days 1 and 28; at 2 min, 1 h and 4 h postdose the 3rd dosing on Days 1 and 28. Animals in control group were sampled at predose and 2 min postdose of the 1st dosing on Days 1 and 28. Approximately 0.36 mL of blood was collected from the jugular vein of surviving TK animals at each time point. Whole blood samples were anticoagulated with EDTA-K2 and centrifuged at 2°C–8°C and 1800 × g for 10 min. The harvested plasma was stored below −66°C before the analysis. LC-MS/MS methods (liquid chromatograph/mass spectrometer) were used to detect concentrations of LPM3480392 at each time point. TK parameters (AUC, Cmax, Tmax) were calculated by Phoenix WinNonlin (Pharsight) 8.2. The detection instruments include ultra-performance liquid chromatography (Waters, United States ACQUITY UPLC I -CLASS) and triple quadrupole tandem mass spectrometer (Waters, United States, Xevo TQ-S).

[2] = 0.6 mg/kg/day, end of dosing phase, 10 examined
[3] = 1.2 mg/kg/day, end of dosing phase, 10 examined
[4] = 2.4 mg/kg/day, end of dosing phase, 9 examined

Fc1ccc([C@]2(CCNCc3cccc(Cl)c3)CCO[C@]3(CCOC3)C2)nc1 [LPM3480392]
Epididymis: Cell debris, lumen, Grade: 1 (minimal), animals (Sprague Dawley (SD) rats; [2]): 0 | Epididymis: Cell debris, lumen, Grade: 3 (moderate), animals (Sprague Dawley (SD) rats; [2]): 0 | Epididymis: Cell debris, lumen, Total Incidence (Sprague Dawley (SD) rats; [2]): 0 | Epididymis: Sperm, decreased, lumen, Grade: 4 (marked), animals (Sprague Dawley (SD) rats; [2]): 0 | Epididymis: Sperm, decreased, lumen, Total Incidence (Sprague Dawley (SD) rats; [2]): 0 | Testis: Degeneration, tubule, Grade: 2 (mild), animals (Sprague Dawley (SD) rats; [2]): 0 | Testis: Degeneration, tubule, Total Incidence (Sprague Dawley (SD) rats; [2]): 0 | Epididymis: Cell debris, lumen, Grade: 1 (minimal), animals (Sprague Dawley (SD) rats; [3]): 0 | Epididymis: Cell debris, lumen, Grade: 3 (moderate), animals (Sprague Dawley (SD) rats; [3]): 0 | Epididymis: Cell debris, lumen, Total Incidence (Sprague Dawley (SD) rats; [3]): 0 | Epididymis: Sperm, decreased, lumen, Grade: 4 (marked), animals (Sprague Dawley (SD) rats; [3]): 0 | Epididymis: Sperm, decreased, lumen, Total Incidence (Sprague Dawley (SD) rats; [3]): 0 | Testis: Degeneration, tubule, Grade: 2 (mild), animals (Sprague Dawley (SD) rats; [3]): 0 | Testis: Degeneration, tubule, Total Incidence (Sprague Dawley (SD) rats; [3]): 0 | Epididymis: Cell debris, lumen, Grade: 1 (minimal), animals (Sprague Dawley (SD) rats; [4]): 1 | Epididymis: Cell debris, lumen, Grade: 3 (moderate), animals (Sprague Dawley (SD) rats; [4]): 1 | Epididymis: Cell debris, lumen, Total Incidence (Sprague Dawley (SD) rats; [4]): 2 | Epididymis: Sperm, decreased, lumen, Grade: 4 (marked), animals (Sprague Dawley (SD) rats; [4]): 1 | Epididymis: Sperm, decreased, lumen, Total Incidence (Sprague Dawley (SD) rats; [4]): 1 | Testis: Degeneration, tubule, Grade: 2 (mild), animals (Sprague Dawley (SD) rats; [4]): 1 | Testis: Degeneration, tubule, Total Incidence (Sprague Dawley (SD) rats; [4]): 1 | Microscopic changes in brain, heart, liver, spleen, lungs, kidney, adrenal gland, thymus, lymph node, gastrointestinal tract (Sprague Dawley (SD) rats; end of dosing phase and recovery phase): no microscopic changes | Mild tubular degeneration of the testis, incidence (Sprague Dawley (SD) rats; males, 2.4 mg/kg/day, end of dosing phase): 1/9 | Accumulation after 28-day repeated dosing ([1]; 0.6–2.4 mg/kg/day): No accumulation | Gender difference of mean AUC0–12h in plasma ([1]; 0.6–2.4 mg/kg/day): no apparent gender difference | concentration at 2 min ([1]; 0.6 mg/kg/day, 0.6 mg/kg/day iv, 1st dosing day, F + M, read-out: C2min (The 1st dosing)): 88.3 ± 18.8 ng/mL | concentration at 2 min ([1]; 0.6 mg/kg/day, 0.6 mg/kg/day iv, 1st dosing day, F + M, read-out: C2min (The 2nd dosing)): 68.4 ± 12.8 ng/mL | concentration at 2 min ([1]; 0.6 mg/kg/day, 0.6 mg/kg/day iv, 1st dosing day, F + M, read-out: C2min (The 3rd dosing)): 60.1 ± 10.4 ng/mL | concentration at 2 min ([1]; 0.6 mg/kg/day, 0.6 mg/kg/day iv, 28th dosing day, F + M, read-out: C2min (The 1st dosing)): 87.2 ± 14.7 ng/mL | concentration at 2 min ([1]; 0.6 mg/kg/day, 0.6 mg/kg/day iv, 28th dosing day, F + M, read-out: C2min (The 2nd dosing)): 75.4 ± 10.2 ng/mL | concentration at 2 min ([1]; 0.6 mg/kg/day, 0.6 mg/kg/day iv, 28th dosing day, F + M, read-out: C2min (The 3rd dosing)): 73.9 ± 10.9 ng/mL | concentration at 2 min ([1]; 1.2 mg/kg/day, 1.2 mg/kg/day iv, 1st dosing day, F + M, read-out: C2min (The 1st dosing)): 175 ± 18.6 ng/mL | concentration at 2 min ([1]; 1.2 mg/kg/day, 1.2 mg/kg/day iv, 1st dosing day, F + M, read-out: C2min (The 2nd dosing)): 155 ± 29.4 ng/mL | concentration at 2 min ([1]; 1.2 mg/kg/day, 1.2 mg/kg/day iv, 1st dosing day, F + M, read-out: C2min (The 3rd dosing)): 148 ± 27 ng/mL | concentration at 2 min ([1]; 1.2 mg/kg/day, 1.2 mg/kg/day iv, 28th dosing day, F + M, read-out: C2min (The 1st dosing)): 179 ± 23.2 ng/mL | concentration at 2 min ([1]; 1.2 mg/kg/day, 1.2 mg/kg/day iv, 28th dosing day, F + M, read-out: C2min (The 2nd dosing)): 140 ± 31 ng/mL | concentration at 2 min ([1]; 1.2 mg/kg/day, 1.2 mg/kg/day iv, 28th dosing day, F + M, read-out: C2min (The 3rd dosing)): 149 ± 24.6 ng/mL | concentration at 2 min ([1]; 2.4 mg/kg/day, 2.4 mg/kg/day iv, 1st dosing day, F + M, read-out: C2min (The 1st dosing)): 330 ± 27.6 ng/mL | concentration at 2 min ([1]; 2.4 mg/kg/day, 2.4 mg/kg/day iv, 1st dosing day, F + M, read-out: C2min (The 2nd dosing)): 290 ± 23.1 ng/mL | concentration at 2 min ([1]; 2.4 mg/kg/day, 2.4 mg/kg/day iv, 1st dosing day, F + M, read-out: C2min (The 3rd dosing)): 229 ± 43.6 ng/mL | concentration at 2 min ([1]; 2.4 mg/kg/day, 2.4 mg/kg/day iv, 28th dosing day, F + M, read-out: C2min (The 1st dosing)): 351 ± 61.7 ng/mL | concentration at 2 min ([1]; 2.4 mg/kg/day, 2.4 mg/kg/day iv, 28th dosing day, F + M, read-out: C2min (The 2nd dosing)): 323 ± 89.2 ng/mL | concentration at 2 min ([1]; 2.4 mg/kg/day, 2.4 mg/kg/day iv, 28th dosing day, F + M, read-out: C2min (The 3rd dosing)): 320 ± 34.2 ng/mL | AUC(0-t) ([1]; 0.6 mg/kg/day, 0.6 mg/kg/day iv, 1st dosing day, F + M, read-out: AUC0–12h): 315 ± 43.7 ng·h/mL | AUC(0-t) ([1]; 0.6 mg/kg/day, 0.6 mg/kg/day iv, 28th dosing day, F + M, read-out: AUC0–12h): 349 ± 38.2 ng·h/mL | AUC(0-t) ([1]; 0.6 mg/kg/day, female + male, 0.6 mg/kg/day, Day 1, read-out: Mean AUC0–12h): 315 ng·h/mL | AUC(0-t) ([1]; 0.6 mg/kg/day, female + male, 0.6 mg/kg/day, Day 28, read-out: Mean AUC0–12h): 349 ng·h/mL | AUC(0-t) ([1]; 1.2 mg/kg/day, 1.2 mg/kg/day iv, 1st dosing day, F + M, read-out: AUC0–12h): 663 ± 114 ng·h/mL | AUC(0-t) ([1]; 1.2 mg/kg/day, 1.2 mg/kg/day iv, 28th dosing day, F + M, read-out: AUC0–12h): 680 ± 74.5 ng·h/mL | AUC(0-t) ([1]; 1.2 mg/kg/day, female + male, 1.2 mg/kg/day, Day 1, read-out: Mean AUC0–12h): 663 ng·h/mL | AUC(0-t) ([1]; 1.2 mg/kg/day, female + male, 1.2 mg/kg/day, Day 28, read-out: Mean AUC0–12h): 680 ng·h/mL | AUC(0-t) ([1]; 2.4 mg/kg/day, 2.4 mg/kg/day iv, 1st dosing day, F + M, read-out: AUC0–12h): 1250 ± 93.6 ng·h/mL
